From patent US8183388B2, “Androgen receptor modulator and uses thereof” (Eli Lilly and Company, priority 2009, dated 2012)

Target: T1, human MR (mineralocorticoid receptor) (Homo sapiens, UniProt P08235)
T1 construct: expressed in transfected cells; host or cells: HEK293 (lysate, 293-MR)
T1 sequence (P08235 1-984): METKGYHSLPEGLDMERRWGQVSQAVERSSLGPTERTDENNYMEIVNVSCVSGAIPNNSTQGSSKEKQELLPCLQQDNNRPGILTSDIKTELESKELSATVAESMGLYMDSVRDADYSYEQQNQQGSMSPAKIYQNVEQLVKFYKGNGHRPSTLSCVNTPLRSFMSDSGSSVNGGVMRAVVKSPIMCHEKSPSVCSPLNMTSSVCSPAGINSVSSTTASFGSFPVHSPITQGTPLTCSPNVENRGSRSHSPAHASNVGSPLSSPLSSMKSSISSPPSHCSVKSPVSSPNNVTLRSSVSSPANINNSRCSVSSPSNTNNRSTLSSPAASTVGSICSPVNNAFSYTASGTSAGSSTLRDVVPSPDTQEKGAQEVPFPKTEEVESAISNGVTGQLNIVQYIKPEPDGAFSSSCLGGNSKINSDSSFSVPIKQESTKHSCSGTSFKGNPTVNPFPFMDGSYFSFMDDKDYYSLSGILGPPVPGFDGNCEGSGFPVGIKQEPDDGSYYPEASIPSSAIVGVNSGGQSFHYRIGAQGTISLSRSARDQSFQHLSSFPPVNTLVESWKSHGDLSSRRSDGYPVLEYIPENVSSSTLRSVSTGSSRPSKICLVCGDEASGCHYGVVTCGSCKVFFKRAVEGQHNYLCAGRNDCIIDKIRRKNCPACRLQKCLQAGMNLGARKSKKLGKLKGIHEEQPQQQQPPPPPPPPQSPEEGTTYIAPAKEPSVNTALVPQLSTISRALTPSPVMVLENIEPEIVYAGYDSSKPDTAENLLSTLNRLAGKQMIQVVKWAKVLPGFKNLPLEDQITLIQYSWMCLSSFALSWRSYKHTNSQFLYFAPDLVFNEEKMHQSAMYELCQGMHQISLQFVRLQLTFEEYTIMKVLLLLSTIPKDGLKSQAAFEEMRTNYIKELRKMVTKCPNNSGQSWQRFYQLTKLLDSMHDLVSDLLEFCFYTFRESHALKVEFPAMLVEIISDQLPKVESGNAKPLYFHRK
Test: Steroid hormone nuclear receptor binding assay, MR
Conditions: HEK293 lysate overexpressing human MR, [3H]-aldosterone
Method: Cell lysates from human embryonic kidney HEK293 cells overexpressing human MR (mineralocorticoid receptor), GR (glucocorticoid receptor), AR (androgen receptor), or PR (progesterone receptor) are used for receptor-ligand competition binding assays to determine Ki values. Typical procedures are provided below
Briefly, steroid receptor competition binding assays are run in a buffer containing 20 mM HEPES buffer (pH=7.6), 0.2 mM EDTA, 75 mM NaCl, 1.5 mM MgCl2, 20% glycerol, 20 mM sodium molybdate, 0.2 mM DTT (dithiothreitol), 20 μg/mL aprotinin and 20 μg/mL leupeptin (assay buffer). Typically, steroid receptor binding assays include radio-labeled ligands, such as 0.25 nM [^3H]-aldosterone for MR binding, 0.3 nM [^3H]-dexamethasone for GR binding, 0.36 nM [^3H]-methyltrienolone for AR binding, and 0.29 nM [^3H]-methyltrienolone for PR binding, and either 20 μg 293-MR lysate, 20 μg 293-GR lysate, 22 μg 293-AR lysate, or 40 μg 293-PR lysate per well. Assays are typically run in 96-well format. Competing test compounds are added at various concentrations ranging from about 0.01 nM to 10 μM. Non-specific binding is determined in the presence of 500 nM aldosterone for MR binding, 500 nM dexamethasone for GR binding, or 500 nM methyltrienolone for AR and PR binding. […] After an incubation of 2 hours, plates are read in a Wallac Microbeta counter. […]

## CC(C)OC(=O)N[C@H]1Cc2c(n(C[C@H]3OCC[C@@H]3O)c3ccc(C#N)cc23)C1 [compound of Formula (I), [(S)-7-Cyano-4-((2R,3S)-3-hydroxytetrahydrofuran-2-ylmethyl)-1,2,3,4-tetrahydrocyclopenta[b]indol-2-yl]-carbamic acid isopropyl ester]
  Ki: > 4 µM
